Results as given in patent publication US4428955A, “Benzopyran compounds, pharmaceutical compositions containing them and methods of use” (Boehringer Mannheim GmbH, priority 1981, dated 1984).

System: antigen induced bronchospasm
Assay: Inhibition of antigen induced bronchospasm in passively sensitized guinea pigs
Assay type: in vivo, guinea pig
Conditions: 60 min before antigen, 3 min after antigen application
Procedure: The following tests were conducted to determine the effectiveness of the new compounds in the inhibition of antigen induced bronchospasm in passively sensitized guinea pigs.
The antigen is twice recrystallised egg albumin. Equal volumes of saline solution of antigen (5 mg/ml) and Freund's complete adjuvant were emulsified and 0.15 ml injected into each hind foot of adult male guinea pigs (DAVIES and JOHNSON: Int. Arch. Allergy 41, 648-654 (1971)).
The animals were bled and the pooled serum stored at -20° C.
Injections of 0.5 ml antiserum of 1:50 dilution were given i.v. 24-48 h before challenge.
Guinea pigs were anaesthetized with pentobarbitone sodium (40 mg/kg i.p.). Cannulae were tied into the trachea and the jugular vein and the lung inflated with a pump at a rate of 72 strokes/min and a constant stroke volume of 6-8 ml.
Bronchospasm, provoked by injecting ovalbumin i.v. was measured as described in COLLIER, H. O. J., J. A. HOLGATE, M. SCHACHTER: THE BRONCHOCONSTRICTOR ACTION OF BRADYKININ IN THE GUINEA-PIG. Brit. J. Pharmacol. 15, 290 (1960) and KONZETT, H. und R. ROSSLER: Versuchsanordnung zu Untersuchungen an der Bronchialmuskulatur. Naunyn-Schmiedebergs Arch. exp. Path. Pharmk. 195, 71-74 (1940)
Drugs were applied p.o. 60 min before antigen. For calculation the following formular was used: [formula]
b=Bronchospasm after antigen injection, measured in mm from tracing
m=maximum height of tracing in mm with arm of the trachea-cannula clamped
a=pre injection height of the tracing in mm
% inhibition of bronchospasm was calculated by comparing control groups with drug pretreated groups 3 min after antigen application.

Structure (SMILES) | % Inhibition of BrSp (bronchospasm) (0.75 mg/kg p.o.) [%] | % Inhibition of BrSp (bronchospasm) (1.5 mg/kg p.o.) [%] | % Inhibition of BrSp (bronchospasm) (3.0 mg/kg p.o.) [%] | % Inhibition of BrSp (bronchospasm) (0.38 mg/kg p.o.) [%]
Cc1c(C)c2ccc(OCCCN3CCC(NC(=O)c4cccs4)CC3)cc2oc1=O [3,4-Dimethyl-7-{3-[4-(thiophene-2-carboxamido)-piperidino]-propoxy}-cumarin, reference compound] | 0 | 40 | 67 | –
Cc1cc(=O)c2ccc(OCCCN3CCC(NC(=O)c4ccccc4)CC3)cc2o1 [7-[3-(4-Benzamidopiperidino)-propoxy]-2-methyl-4H-1-benzopyran-4-one] | 64 | – | – | 55
Cc1cc(=O)c2ccc(OCCCN3CCC(NC(=O)c4ccccc4C)CC3)cc2o1 [7-{3-[4-(2-methylbenzamido)-piperidino]-propoxy}-2-methyl-4H-1-benzopyran-4-one] | 60 | – | – | –
Cc1cc(=O)c2ccc(OCCCN3CCC(NC(=O)c4ccc(F)cc4)CC3)cc2o1 [7-{3-[4-(4-fluorobenzamido)-piperidino]-propoxy}-2-methyl-4H-1-benzopyran-4-one] | – | – | – | 46
